Key:
Assay in all cases: relative viability (nuclei count vs DMSO), 5 days (fraction); higher = more cells survive
[1] = compound: Nc1ccccc1NC(=O)c1ccc(CNC(=O)OCc2cccnc2)cc1 [Entinostat] + O=C(c1cc(Cc2n[nH]c(=O)c3ccccc23)ccc1F)N1CCN(C(=O)C2CC2)CC1 [Olaparib] (partner 8 µM)
Procedure, shortened: (§1)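 For relative viability, nuclei counts in treated wells were divided by those in vehicle wells. Lung cancer cell lines had been pin-tool dosed in 1536-well plates the day after seeding and cultured for 5 days, then fixed and stained in one step (final 0.05% Triton X-100, 1% formaldehyde, 1 ug/ml Hoechst) and imaged at 4×. Doses were one drug alone or a fixed anchor-drug dose plus five library-drug doses (not always all listed) in √10 steps, and values are duplicate-plate medians.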

[2] = compound: Nc1ccccc1NC(=O)c1ccc(CNC(=O)OCc2cccnc2)cc1 [Entinostat] + N=C(N)NC(=N)NCCc1ccccc1 [Phenformin] (partner 250 µM)
Procedure, shortened: as §1

[3] = compound: CN1CCC(CNc2ccc3ncc(-c4cccc(OC(F)(F)F)c4)n3n2)CC1 [SGI-1776] + CS(=O)(=O)CCNCc1ccc(-c2ccc3ncnc(Nc4ccc(OCc5cccc(F)c5)c(Cl)c4)c3c2)o1 [Lapatinib] (partner 2 µM)
Procedure, shortened: as §1

[4] = compound: C1COCCN1C2=NC(=NC3=C2OC4=C3C=CC=N4)C5=CC(=CC=C5)NC(=O)C6=CN=C(C=C6)N + N=C(N)NC(=N)NCCc1ccccc1 [Phenformin] (partner 250 µM)
Procedure, shortened: as §1

Row | Cell Line | relative viability ([1]; first compound 0.02 µM) | relative viability ([1]; first compound 0.06325 µM) | relative viability ([1]; first compound 0.2 µM) | relative viability ([1]; first compound 0.6325 µM) | relative viability ([1]; first compound 2 µM) | relative viability ([2]; first compound 0.02 µM) | relative viability ([2]; first compound 0.06325 µM) | relative viability ([2]; first compound 0.2 µM) | relative viability ([2]; first compound 0.6325 µM) | relative viability ([2]; first compound 2 µM) | relative viability ([3]; first compound 0.08 µM) | relative viability ([3]; first compound 0.8 µM) | relative viability ([3]; first compound 2.53 µM) | relative viability ([3]; first compound 8 µM) | relative viability ([4]; first compound 0.02 µM) | relative viability ([4]; first compound 0.06325 µM) | relative viability ([4]; first compound 0.2 µM) | relative viability ([4]; first compound 0.6325 µM) | relative viability ([4]; first compound 2 µM)
1 | COR-L 105 | 0.683 | 0.825 | 0.773 | 0.483 | 0.407 | 0.499 | 0.561 | 0.45 | 0.411 | 0.23 | 0.332 | 0.394 | 0.388 | 0.244 | 0.402 | 0.517 | 0.404 | 0.41 | 0.274
2 | EKVX | 0.766 | 0.829 | 0.825 | 0.73 | 0.386 | 0.225 | 0.243 | 0.227 | 0.222 | 0.205 | 0.225 | 0.205 | 0.209 | 0.166 | 0.223 | 0.21 | 0.207 | 0.216 | 0.181
3 | EMC-BAC-2 | 0.48 | 0.444 | 0.388 | 0.3 | 0.23 | 0.523 | 0.533 | 0.449 | 0.416 | 0.293 | 0.912 | 0.902 | 0.836 | 0.849 | 0.543 | 0.56 | 0.451 | 0.469 | 0.304
4 | EPLC-272H | 0.726 | 0.614 | 0.875 | 0.273 | 0.191 | 0.297 | 0.303 | 0.276 | 0.175 | 0.217 | 1.04 | 0.889 | 1.1 | 0.771 | 0.306 | 0.305 | 0.26 | 0.241 | 0.282
5 | H3255 | 0.606 | 0.51 | 0.454 | 0.364 | 0.308 | 0.378 | 0.376 | 0.272 | 0.316 | 0.267 | 0.285 | 0.33 | 0.259 | 0.198 | 0.362 | 0.357 | 0.368 | 0.326 | 0.338
6 | HARA | 0.761 | 0.944 | 0.675 | 0.876 | 0.314 | 0.459 | 0.441 | 0.494 | 0.364 | 0.277 | 0.886 | 0.856 | 0.617 | 0.586 | 0.413 | 0.586 | 0.487 | 0.431 | 0.363
7 | HCC-15 | 0.684 | 0.617 | 0.56 | 0.377 | 0.201 | 0.491 | 0.461 | 0.453 | 0.246 | 0.175 | 0.821 | 0.882 | 0.933 | 0.786 | 0.546 | 0.528 | 0.462 | 0.388 | 0.25
8 | HCC-44 | 0.957 | 0.906 | 0.93 | 0.875 | 0.7 | 0.204 | 0.197 | 0.129 | 0.11 | 0.0548 | 1.04 | 1.15 | 1.01 | 0.962 | 0.182 | 0.191 | 0.137 | 0.157 | 0.171
9 | HCC-78 | 0.771 | 0.722 | 0.577 | 0.386 | 0.355 | 0.819 | 0.751 | 0.55 | 0.329 | 0.27 | 0.848 | 0.7 | 0.783 | 0.698 | 0.716 | 0.654 | 0.761 | 0.681 | 0.642
10 | HCC-366 | 0.343 | 0.311 | 0.212 | 0.132 | 0.0516 | 0.578 | 0.61 | 0.582 | 0.451 | 0.186 | 1.12 | 0.95 | 0.992 | 0.837 | 0.63 | 0.709 | 0.644 | 0.644 | 0.573
11 | HCC-827 | 0.587 | 0.623 | 0.488 | 0.322 | 0.237 | 0.397 | 0.381 | 0.395 | 0.357 | 0.275 | 0.168 | 0.201 | 0.16 | 0.194 | 0.384 | 0.43 | 0.419 | 0.416 | 0.386
12 | HOP-62 | 0.36 | 0.391 | 0.373 | 0.147 | 0.128 | 0.614 | 0.6 | 0.773 | 0.412 | 0.266 | 1.19 | 0.954 | 1.16 | 0.928 | 0.762 | 0.874 | 0.686 | 0.546 | 0.294
13 | LC-2-ad | 0.785 | 0.635 | 0.633 | 0.527 | 0.3 | 0.568 | 0.566 | 0.579 | 0.365 | 0.208 | 1.04 | 0.95 | 1.01 | 0.88 | 0.551 | 0.598 | 0.456 | 0.493 | 0.49
14 | LCLC-97TM1 | 0.476 | 0.402 | 0.41 | 0.32 | 0.364 | 0.423 | 0.376 | 0.392 | 0.465 | 0.395 | 1 | 0.79 | 1.14 | 0.95 | 0.446 | 0.475 | 0.409 | 0.452 | 0.419
15 | LK-2 | 0.857 | 0.904 | 0.584 | 0.475 | 0.239 | 0.497 | 0.761 | 0.576 | 0.383 | 0.32 | 1.13 | 1.06 | 0.781 | 0.75 | 0.538 | 0.551 | 0.249 | 0.2 | 0.252
